In patent US8969403B2, “Crystalline forms of a 3-[2-methanesulfonyl-1-(4-trifluoromethyl-phenoxy)ethyl]pyrrolidine compound” (Theravance Biopharma R&D IP, LLC, priority 2011, dated 2015):

Assays:
[1] = Dynamic moisture sorption (DMS) assessment; format: physicochemical; settings: for crystalline form after the DMS experiment (by PXRD, DSC, TGA): 5% RH to 90% RH adsorption/desorption, 25° C.; for moisture picked up during the adsorption segment (DMS): 5% RH to 90% RH, isothermal 25° C., desorption matches adsorption, no hysteresis
Experimental: Dynamic moisture sorption (DMS) measurements were performed for each crystalline form using a VTI atmospheric microbalance, SGA-100 system (VTI Corp., Hialeah, Fla. 33016). A weighed sample was used and the humidity was set at the ambient value at the start of the analysis. The DMS analysis consisted of a scan rate of 5% RH/step over the full humidity range of 5% relative humidity (RH) to 90% RH. The DMS run was performed isothermally at 25° C.

[2] = Slurry conversion of mixed anhydrous Form I and Form II in MTBE:water (95:5); format: physicochemical; settings: equal amounts Form I and Form II, room temperature, three days
Experimental: Equal amounts (˜50 mg) of anhydrous Form I and anhydrous Form II were weighed out and physically mixed in a vial with a spatula. A solution of MTBE:water (95:5) was added to this solid mixture and stirred to form a suspension. The suspension was stirred at room temperature for three days and filtered through a filter paper. The solid residue was allowed to dry under ambient conditions and analyzed with powder X-ray diffractometry and DSC.

SMILES | crystalline form after the DMS experiment (by PXRD, DSC, TGA) [1] | moisture uptake between 60% RH and 65% RH (DMS adsorption segment) ([1]; gradual uptake until 60% RH, isotherm flat 65% RH to 90% RH, moisture not lost on desorption) | anhydrous Form II content of the filtered solid (PXRD) [2] [%] | form conversion under slurry conditions [2] | moisture picked up during the adsorption segment (DMS) [1]
CS(=O)(=O)C[C@@H](Oc1ccc(C(F)(F)F)cc1)[C@H]1CCNC1 [anhydrous Form I, (S)-3-[(S)-2-methanesulfonyl-1-(4-trifluoromethylphenoxy)ethyl]pyrrolidine] | converted to the monohydrate form | rapid | > 95 | converted to anhydrous Form II | 
CS(=O)(=O)C[C@@H](Oc1ccc(C(F)(F)F)cc1)[C@H]1CCNC1 [anhydrous Form II, (S)-3-[(S)-2-methanesulfonyl-1-(4-trifluoromethylphenoxy)ethyl]pyrrolidine] | remains as Form II |  |  |  | less than 1 % by weight
CS(=O)(=O)C[C@@H](Oc1ccc(C(F)(F)F)cc1)[C@H]1CCNC1 [monohydrate, (S)-3-[(S)-2-methanesulfonyl-1-(4-trifluoromethylphenoxy)ethyl]pyrrolidine] | remains as the monohydrate form |  |  |  | less than 1 % by weight
